≈ marks a conversion by molar mass, not a printed value. Read-outs that look alike come from different tables or passages of the source.
Key:
B. cereus IFO 3001 = assay: Minimum inhibitory concentration (MIC), antimicrobial activity; assay type: cell-based; settings: Bacillus cereus
Procedure: (§1) The antimicrobial activity of the PTL-448 derivatives of the invention is illustrated in Table 3, which is a summary of the results of a number of tests carried out to determine minimum inhibitory concentrations (MIC) of the derivatives against a number of typical bacteria. Comparative results for Spiramycin I (SPM I) and III (SPM III) are also given. Tests were carried out using heart infusion agar media (pH 7 at 37° C., after about 20 hours).

[1] = test system: Bacillus subtilis PCI 219; assay: as above; assay type: cell-based
Procedure: as §1

E. coli N-33 = assay: as above; assay type: cell-based; settings: Escherichia coli
Procedure: as §1

[2] = test system: Klebsiella pneumoniae ATCC 10031; assay: as above; assay type: cell-based
Procedure: as §1

[3] = test system: Micrococcus luteus ATCC 9341; assay: as above; assay type: cell-based
Procedure: as §1

S. aureus FDA 209P = assay: as above; assay type: cell-based; settings: Staphylococcus aureus, FDA209P
Procedure: as §1

S. pyogenes KB 166 = assay: as above; assay type: cell-based; settings: Streptococcus pyogenes, KB166, heart infusion agar, pH 7, 37° C., about 20 hours
Procedure: as §1

[4] = test system: Salmonella typhimurium KB 20; assay: as above; assay type: cell-based; settings: Salmonella enterica
Procedure: as §1

[5] = test system: Staphylococcus aureus ATCC 6538P; assay: as above; assay type: cell-based; settings: ATCC6538P
Procedure: as §1

[6] = test system: Streptococcus pneumoniae III KB 165; assay: as above; assay type: cell-based
Procedure: as §1

[7] = test system: Acholeplasma laidlawii PG-8; assay: Activity against Mycoplasma, paper disk inhibition zone; assay type: cell-based; settings: paper disk 8 mm in diameter, 37° C., about 48 hours
Procedure: (§2) In addition, the activity of the PTL-448 derivatives against Mycoplasma was examined by conventional methods (paper disk 8 mm in diameter, 37° C., about 48 hours).

Toxicity tests in mice = assay type: in vivo; settings: 100 mg/kg i.p., after 1 month of treatment
Solubility = assay type: physicochemical
[8] = test system: Mycoplasma gallisepticum KP-13; assay: Activity against Mycoplasma, paper disk inhibition zone; assay type: cell-based; settings: paper disk 8 mm in diameter, 37° C., about 48 hours
Procedure: as §2

[9] = IFO3001, B. cereus IFO 3001, heart infusion agar, pH 7, 37° C., about 20 hours, read-out: MIC
[10] = PCI219, Bacillus subtilis PCI 219, heart infusion agar, pH 7, 37° C., about 20 hours, read-out: MIC
[11] = N33, E. coli N-33, heart infusion agar, pH 7, 37° C., about 20 hours, read-out: MIC
[12] = ATCC10031, Klebsiella pneumoniae ATCC 10031, heart infusion agar, pH 7, 37° C., about 20 hours, read-out: MIC
[13] = ATCC9341, Micrococcus luteus ATCC 9341, heart infusion agar, pH 7, 37° C., about 20 hours, read-out: MIC
[14] = S. aureus FDA 209P, heart infusion agar, pH 7, 37° C., about 20 hours, read-out: MIC
[15] = Salmonella typhimurium KB 20, heart infusion agar, pH 7, 37° C., about 20 hours, read-out: MIC
[16] = Staphylococcus aureus ATCC 6538P, heart infusion agar, pH 7, 37° C., about 20 hours, read-out: MIC
[17] = IIIKB165, Streptococcus pneumoniae III KB 165, heart infusion agar, pH 7, 37° C., about 20 hours, read-out: MIC
[18] = methanol, ethanol, acetone, ethyl acetate, chloroform, benzene

Question: Which results are given for `CCC1OC(=O)CC(OC(C)=O)C(C)C(OC2OC(C)C(O)C(N(C)C)C2O)C(CC=O)CC(C)C(OC2CCC(N(C)C)C(C)O2)C=CC(C)=CC1C` (stereo not shown) [PTL-448-C]?
Answer: MIC (B. cereus IFO 3001; [9]): 1.56 µg/mL (≈ 2.03 µM); MIC [1, 10]: 1.56 µg/mL (≈ 2.03 µM); MIC (E. coli N-33; [11]): 0.4 µg/mL (≈ 0.522 µM); MIC [2, 12]: 50 µg/mL (≈ 65.2 µM); MIC [3, 13]: 0.4 µg/mL (≈ 0.522 µM); MIC (S. aureus FDA 209P; [14]): 1.56 µg/mL (≈ 2.03 µM); MIC (S. pyogenes KB 166): 0.4 µg/mL (≈ 0.522 µM); MIC [4, 15]: 50 µg/mL (≈ 65.2 µM); MIC [5, 16]: 1.56 µg/mL (≈ 2.03 µM); MIC [6, 17]: 0.2 µg/mL (≈ 0.261 µM); Diameter of Inhibition Zone [7]: 33.1 mm; fatalities (Toxicity tests in mice): no fatalities occurred; Solubility (Solubility; ether, n-hexane): Slightly soluble; Solubility (Solubility; [18]): Soluble; Solubility (Solubility; water): Insoluble

Question: For `CCC1OC(=O)CC(O)C(C)C(OC2OC(C)C(OC3CC(C)(O)C(O)C(C)O3)C(N(C)C)C2O)C(CC=O)CC(C)C(OC2CCC(N(C)C)C(C)O2)C=CC(C)=CC1C` (stereo not shown) [PTL-448-B], which MIC (B. cereus IFO 3001; [9]) is on record?
Answer: Its MIC is 1.56 µg/mL (≈ 1.79 µM).

Question: And the MIC [1, 10]?
Answer: Its MIC is 0.78 µg/mL (≈ 0.897 µM).

Question: What about the MIC (E. coli N-33; [11]) of the same compound?
Answer: Its MIC is 0.78 µg/mL (≈ 0.897 µM).

Question: And the MIC [2, 12]?
Answer: The MIC was > 100 µg/mL.

Question: And the MIC [3, 13]?
Answer: The MIC was 0.4 µg/mL (≈ 0.46 µM).

Question: And the MIC (S. aureus FDA 209P; [14])?
Answer: The MIC was 3.12 µg/mL (≈ 3.59 µM).

Question: And the MIC (S. pyogenes KB 166)?
Answer: Its MIC is 0.4 µg/mL (≈ 0.46 µM).

Question: What about the MIC [4, 15] of the same compound?
Answer: The MIC was > 100 µg/mL.

Question: What about the MIC [5, 16] of the same compound?
Answer: Its MIC is 3.12 µg/mL (≈ 3.59 µM).

Question: And the MIC [6, 17]?
Answer: The MIC was 0.4 µg/mL (≈ 0.46 µM).

Question: And the “Diameter of Inhibition Zone” value [7]?
Answer: Its value is 31.4 mm.

Question: And the “Diameter of Inhibition Zone” value [8]?
Answer: The value was 30.1 mm.

Question: What about the fatalities (Toxicity tests in mice) of the same compound?
Answer: Its fatalities is “no fatalities occurred”.

Question: And the Solubility (Solubility; ether, n-hexane)?
Answer: Its Solubility is “Slightly soluble”.

Question: And the Solubility (Solubility; [18])?
Answer: The Solubility was “Soluble”.

Question: What about the Solubility (Solubility; water) of the same compound?
Answer: Its Solubility is “Insoluble”.

Question: For `COC1C(O)CC(=O)OC(C)CC=CC=CC(OC2CCC(N(C)C)C(C)O2)C(C)CC(CC=O)C1OC1OC(C)C(OC2CC(C)(O)C(O)C(C)O2)C(N(C)C)C1O` (stereo not shown) [SPM I, Spiramycin I, reference compound], which MIC (B. cereus IFO 3001; IFO3001, 20 h, pH 7) is on record?
Answer: The MIC was 3.12 µg/mL (≈ 3.7 µM).

Question: What about the MIC ([1]; Bacillus subtilis, PCI219, 20 h, pH 7) of the same compound?
Answer: Its MIC is 1.56 µg/mL (≈ 1.85 µM).

Question: And the MIC (E. coli N-33; N33, 20 h, pH 7)?
Answer: Its MIC is 1.56 µg/mL (≈ 1.85 µM).

Question: What about the MIC ([2]; Klebsiella pneumoniae, ATCC10031, 20 h, pH 7) of the same compound?
Answer: Its MIC is > 100 µg/mL.

Question: And the MIC ([3]; Micrococcus luteus, ATCC9341, 20 h, pH 7)?
Answer: Its MIC is 0.4 µg/mL (≈ 0.474 µM).

Question: What about the MIC (S. aureus FDA 209P; 20 h, pH 7) of the same compound?
Answer: Its MIC is 6.25 µg/mL (≈ 7.41 µM).

Question: And the MIC ([4]; TYPHIMURIUM, 20 h, pH 7)?
Answer: Its MIC is > 100 µg/mL.

Question: And the MIC ([5]; Staphylococcus aureus, 20 h, pH 7)?
Answer: The MIC was 6.25 µg/mL (≈ 7.41 µM).

Question: What about the MIC ([6]; Streptococcus pneumoniae, IIIKB165, 20 h, pH 7) of the same compound?
Answer: The MIC was 0.4 µg/mL (≈ 0.474 µM).

Question: With `CCC(=O)OC1CC(=O)OC(C)CC=CC=CC(OC2CCC(N(C)C)C(C)O2)C(C)CC(CC=O)C(OC2OC(C)C(OC3CC(C)(O)C(O)C(C)O3)C(N(C)C)C2O)C1OC` (stereo not shown) [SPM III, Spiramycin III, reference compound] as the compound, how does the MIC (B. cereus IFO 3001; [9]) read?
Answer: The MIC was 3.12 µg/mL (≈ 3.47 µM).

Question: What about the MIC [1, 10] of the same compound?
Answer: The MIC was 1.56 µg/mL (≈ 1.74 µM).

Question: What about the MIC (E. coli N-33; [11]) of the same compound?
Answer: The MIC was 1.56 µg/mL (≈ 1.74 µM).

Question: What about the MIC [2, 12] of the same compound?
Answer: Its MIC is > 100 µg/mL.

Question: What about the MIC [3, 13] of the same compound?
Answer: The MIC was 0.4 µg/mL (≈ 0.445 µM).

Question: What about the MIC (S. aureus FDA 209P; [14]) of the same compound?
Answer: The MIC was 12.5 µg/mL (≈ 13.9 µM).

Question: And the MIC [4, 15]?
Answer: Its MIC is > 100 µg/mL.

Question: And the MIC [5, 16]?
Answer: Its MIC is 12.5 µg/mL (≈ 13.9 µM).

Question: And the MIC [6, 17]?
Answer: The MIC was 0.4 µg/mL (≈ 0.445 µM).

Question: Which MIC (B. cereus IFO 3001; [9]) does the source give for `CCC1OC(=O)CC(O)C(C)C(OC2OC(C)C(O)C(N(C)C)C2O)C(CC=O)CC(C)C(OC2CCC(N(C)C)C(C)O2)C=CC(C)=CC1C` (stereo not shown) [PTL-448-D] here?
Answer: The MIC was 1.56 µg/mL (≈ 2.15 µM).

Question: And the MIC [1, 10]?
Answer: The MIC was 1.56 µg/mL (≈ 2.15 µM).

Question: And the MIC (E. coli N-33; [11])?
Answer: Its MIC is 0.2 µg/mL (≈ 0.276 µM).

Question: What about the MIC [2, 12] of the same compound?
Answer: Its MIC is 25 µg/mL (≈ 34.5 µM).

Question: What about the MIC [3, 13] of the same compound?
Answer: Its MIC is 0.2 µg/mL (≈ 0.276 µM).

Question: What about the MIC (S. aureus FDA 209P; [14]) of the same compound?
Answer: Its MIC is 1.56 µg/mL (≈ 2.15 µM).

Question: And the MIC (S. pyogenes KB 166)?
Answer: Its MIC is 0.4 µg/mL (≈ 0.552 µM).

Question: What about the MIC [4, 15] of the same compound?
Answer: Its MIC is 25 µg/mL (≈ 34.5 µM).

Question: And the MIC [5, 16]?
Answer: The MIC was 1.56 µg/mL (≈ 2.15 µM).

Question: And the MIC [6, 17]?
Answer: The MIC was 0.2 µg/mL (≈ 0.276 µM).

Question: What about the “Diameter of Inhibition Zone” value [7] of the same compound?
Answer: The value was 32.0 mm.

Question: And the fatalities (Toxicity tests in mice)?
Answer: The fatalities was “no fatalities occurred”.

Question: What about the Solubility (Solubility; ether, n-hexane) of the same compound?
Answer: The Solubility was “Slightly soluble”.

Question: What about the Solubility (Solubility; [18]) of the same compound?
Answer: The Solubility was “Soluble”.

Question: What about the Solubility (Solubility; water) of the same compound?
Answer: The Solubility was “Insoluble”.

Question: Which results are given for `CCC1OC(=O)CC(OC(C)=O)C(C)C(OC2OC(C)C(OC3CC(C)(O)C(O)C(C)O3)C(N(C)C)C2O)C(CC=O)CC(C)C(OC2CCC(N(C)C)C(C)O2)C=CC(C)=CC1C` (stereo not shown) [PTL-448-A]?
Answer: MIC (B. cereus IFO 3001; [9]): 3.12 µg/mL (≈ 3.42 µM); MIC [1, 10]: 1.56 µg/mL (≈ 1.71 µM); MIC (E. coli N-33; [11]): 1.56 µg/mL (≈ 1.71 µM); MIC [2, 12]: > 100 µg/mL; MIC [3, 13]: 0.4 µg/mL (≈ 0.439 µM); MIC (S. aureus FDA 209P; [14]): 6.25 µg/mL (≈ 6.86 µM); MIC [4, 15]: > 100 µg/mL; MIC [5, 16]: 6.25 µg/mL (≈ 6.86 µM); MIC [6, 17]: 0.4 µg/mL (≈ 0.439 µM); Diameter of Inhibition Zone [7]: 32.6 mm; Diameter of Inhibition Zone [8]: 29.2 mm; fatalities (Toxicity tests in mice): no fatalities occurred; Solubility (Solubility; ether, n-hexane): Slightly soluble; Solubility (Solubility; [18]): Soluble; Solubility (Solubility; water): Insoluble

From patent US4609645A, “Macrolide antibiotics, pharmaceutical compositions and methods of use” (priority 1983, dated 1986)
